# Molecular target: human CTPS1 (Homo sapiens (Human), UniProt P17812)
# Assay: hCTPS1 biochemical assay (ADP-Glo)
# Conditions: hCTPS1 25 nM, ATP 120 uM, UTP 160 uM, GTP 60 uM, L-Glutamine 100 uM, 25 degrees C
# human CTPS1, sequence (P17812 whole entry): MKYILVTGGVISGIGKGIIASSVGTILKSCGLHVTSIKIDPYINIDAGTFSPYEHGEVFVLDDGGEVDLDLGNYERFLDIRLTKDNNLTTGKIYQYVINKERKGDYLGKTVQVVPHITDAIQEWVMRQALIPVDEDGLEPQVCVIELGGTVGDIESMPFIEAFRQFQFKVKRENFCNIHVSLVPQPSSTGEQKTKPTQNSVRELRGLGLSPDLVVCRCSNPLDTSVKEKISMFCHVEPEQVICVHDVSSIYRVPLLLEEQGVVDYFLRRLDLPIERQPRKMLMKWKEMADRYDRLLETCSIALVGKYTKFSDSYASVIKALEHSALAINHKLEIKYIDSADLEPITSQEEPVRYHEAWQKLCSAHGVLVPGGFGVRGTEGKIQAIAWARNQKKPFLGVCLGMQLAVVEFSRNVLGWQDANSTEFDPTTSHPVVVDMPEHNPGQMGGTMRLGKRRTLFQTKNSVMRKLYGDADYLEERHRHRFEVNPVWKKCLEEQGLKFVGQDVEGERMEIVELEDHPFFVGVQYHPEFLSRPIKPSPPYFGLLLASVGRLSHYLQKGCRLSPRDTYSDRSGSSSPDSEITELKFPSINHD
row,IC50 [nM],Compound
1,< 100,"CCOc1cncc(-c2cnc(C(=O)N[C@H](c3cc(NS(=O)(=O)C4CC4)ccn3)[C@@H]3CCOC3)s2)n1 (single isomer, unassigned) [I-94]"
2,< 100,"CCOc1cncc(-c2ccc3c(c2)CN(C(CC)c2csc(NS(=O)(=O)C4CC4)n2)C3=O)n1 (centres unmarked) [I-6, N-(4-(1-(5-(6-ethoxypyrazin-2-yl)-1-oxoisoindolin-2-yl)propyl)thiazol-2-yl)cyclopropanesulfonamide]"
3,100 to 1000,"CCOc1cncc(-c2ccc3c(c2)CN(C2(c4csc(NS(=O)(=O)C5CC5)n4)CC2)C3=O)n1 [I-13, N-(4-(1-(5-(6-ethoxypyrazin-2-yl)-1-oxoisoindolin-2-yl)cyclopropyl)thiazol-2-yl)cyclopropanesulfonamide]"
4,< 100,CCOc1cncc(-c2cnc(C(=O)NC(CN3CC(F)C3)c3cc(NS(=O)(=O)C4CC4)ccn3)s2)n1 (centres unmarked) [I-216]
5,100 to 1000,CCOc1cncc(-n2cc(C(=O)NCc3cc(NS(=O)(=O)C4CC4)ccn3)cn2)n1 [I-244]
6,< 100,"CCOc1cncc(-c2ccc(NC(=O)C(NC(=O)CCOCCNC(=O)OC(C)(C)C)c3csc(NS(=O)(=O)C4CC4)n3)cc2)n1 (centres unmarked) [Z-7, tert-butyl 2-(3-(1-(2-(cyclopropanesulfonamido)thiazol-4-yl)-2-(4-(6-ethoxypyrazin-2-yl)phenylamino)-2-oxoethylamino)-3-oxopropoxy)ethylcarbamate]"
7,< 100,CCOc1cncc(-c2cnc(C(=O)NC(COC)c3cc(NS(=O)(=O)C4CC4)ccn3)s2)n1 (centres unmarked) [I-194]
8,< 100,CCOc1cncc(-c2cnc(C(=O)NC(CCOC)c3cc(NS(=O)(=O)C4CC4)ccn3)s2)n1 (centres unmarked) [I-186]
9,< 100,"CC[C@@H](NC(=O)c1ncc(-c2cnn3ccc(Cl)cc23)s1)c1cc(NS(=O)(=O)C2CC2)ccn1 [I-151, (R)-5-(5-chloropyrazolo[1,5-a]pyridin-3-yl)-N-(1-(4-(cyclopropanesulfonamido)pyridin-2-yl)propyl)thiazole-2-carboxamide]"
10,100 to 1000,"O=C(NCc1cc(NS(=O)(=O)C2CC2)ccn1)c1ncc(-c2cnn3ccccc23)s1 [I-237, N-((4-(cyclopropanesulfonamido)pyridin-2-yl)methyl)-5-(pyrazolo[1,5-a]pyridin-3-yl)thiazole-2-carboxamide]"
11,≥ 1000,CC[C@H]1CCN(c2ncc(C(=O)NCc3cc(NS(=O)(=O)C4CC4)ccn3)nc2C)C1 [I-81]
12,< 100,"CCOc1cncc(-c2cnc(C(=O)N[C@@H](CCN(C)C)c3cccc(NS(=O)(=O)C4CC4)c3)s2)n1 (single isomer, unassigned) [I-144]"
13,100 to 1000,"CCOc1cncc(-c2ccc3c(c2)CN(C(CC)c2csc(NS(=O)(=O)C4CC4)n2)C3=O)n1 (stereo in doubt) [I-12a, (S)—N-(4-(1-(5-(6-ethoxypyrazin-2-yl)-1-oxoisoindolin-2-yl)propyl)thiazol-2-yl)cyclopropanesulfonamide]"
14,< 100,CCOc1cncc(-c2cnc(C(=O)N[C@@H](COC)c3cc(NS(=O)(=O)C4CC4)ccn3)s2)n1 [I-187]
15,100 to 1000,"CCOc1cncc(-c2ccc(C(=O)N3CCC[C@@H]3c3cc(NS(=O)(=O)C4CC4)ccn3)c(F)c2)n1 [I-75, N-[2-[(2R)-1-[4-(6-ethoxypyrazin-2-yl)-2-fluorobenzoyl]pyrrolidin-2-yl]pyridin-4-yl]cyclopropanesulfonamide]"
16,< 100,"CCOc1cncc(-c2ccc(NC(=O)[C@@](F)(CC)c3cc(NS(=O)(=O)C4CC4)ccn3)nc2)n1 [I-258, (R)-2-(4-(cyclopropanesulfonamido)pyridin-2-yl)-N-(5-(6-ethoxypyrazin-2-yl)pyridin-2-yl)-2-fluorobutanamide]"
17,≥ 1000,"CCOc1cncc(-c2ccc(C(=O)NCc3ccnc(NS(=O)(=O)N4CCC4)n3)nc2)n1 [I-82, N-((2-(azetidine-1-sulfonamido)pyrimidin-4-yl)methyl)-5-(6-ethoxypyrazin-2-yl)picolinamide]"
18,< 100,"CCOc1cncc(-c2cnc(C(=O)N[C@@H](CN3CC(F)C3)c3cc(NS(=O)(=O)C4CC4)ccn3)s2)n1 (single isomer, unassigned) [I-203]"
19,≥ 1000,"CCOc1cncc(-c2ccc(C(=O)NC3(c4cccc5c4ccn5S(=O)(=O)C4CC4)CC3)nc2)n1 [I-20, N-(1-(1-(cyclopropylsulfonyl)-1H-indol-4-yl)cyclopropyl)-5-(6-ethoxypyrazin-2-yl)picolinamide]"
20,≥ 1000,"CCOc1cncc(-n2cnc(C(=O)N3CCC[C@@H]3c3ccnc(NS(=O)(=O)C4CC4)n3)c2)n1 [I-275, N-[4-[(2R)-1-[1-(6-ethoxypyrazin-2-yl)imidazole-4-carbonyl]pyrrolidin-2-yl]pyrimidin-2-yl]cyclopropanesulfonamide]"
21,100 to 1000,"CCOc1cncc(-c2cnc(C(=O)N3CCNCC3c3ccnc(NS(=O)(=O)C4CC4)n3)s2)n1 (centres unmarked) [I-181, N-(4-{1-[5-(6-ethoxypyrazin-2-yl)-1,3-thiazole-2-carbonyl]piperazin-2-yl}pyrimidin-2-yl)cyclopropanesulfonamide]"

row,IC50 [nM],Compound
1,< 100,"CCOc1cncc(-c2cnc(C(=O)N[C@H](CN3CCN(C4CC4)CC3)c3cc(NS(=O)(=O)C4CC4)ccn3)s2)n1 (single isomer, unassigned) [I-120]"
2,< 100,"CCOc1cncc(-c2cnc(C(=O)N[C@H](C[C@H]3CCCCN3)c3cc(NS(=O)(=O)C4CC4)ccn3)s2)n1 [I-172, N—((R)-1-(4-(cyclopropanesulfonamido)pyridin-2-yl)-2-((R)-piperidin-2-yl)ethyl)-5-(6-ethoxypyrazin-2-yl)thiazole-2-carboxamide]"
3,< 100,"CCOc1cncc(-c2cnc(C(=O)NC(CCN3CCOCC3)c3cc(NS(=O)(=O)C4CC4)ccn3)s2)n1 (centres unmarked) [I-179, N-(1-(4-(cyclopropanesulfonamido)pyridin-2-yl)-3-morpholinopropyl)-5-(6-ethoxypyrazin-2-yl)thiazole-2-carboxamide]"
4,100 to 1000,"CCOc1cncc(-c2cnc(C(=O)N3CCNC[C@H]3c3ccnc(NS(=O)(=O)C4CC4)n3)s2)n1 [I-168, (S)—N-(4-(1-(5-(6-ethoxypyrazin-2-yl)thiazole-2-carbonyl)piperazin-2-yl)pyrimidin-2-yl)cyclopropanesulfonamide]"
5,< 100,"CCOc1cncc(-c2cnc(C(=O)N3CCC[C@@H]3c3cccc(NS(=O)(=O)C(F)F)c3)s2)n1 [I-70, N-[3-[(2R)-1-[5-(6-ethoxypyrazin-2-yl)-1,3-thiazole-2-carbonyl]pyrrolidin-2-yl]phenyl]-1,1-difluoromethanesulfonamide]"
6,< 100,"CCOc1cncc(-c2ccc(C(=O)NCc3cc(NS(=O)(=O)C(F)F)ccn3)nc2)n1 [I-30, N-[[4-(difluoromethanesulfonamido)pyridin-2-yl]methyl]-5-(6-ethoxypyrazin-2-yl) pyridine-2-carboxamide]"
7,≥ 1000,"O=C(NC1(c2csc(NS(=O)(=O)C3CC3)n2)CC1)c1ccc2cccnc2c1 [I-10, N-(1-(2-(cyclopropanesulfonamido)thiazol-4-yl)cyclopropyl)quinoline-7-carboxamide]"
8,< 100,"CCOc1cncc(-c2cnc(C(=O)NC3(c4cccc(NS(=O)(=O)C(F)F)c4)CC3)s2)n1 [I-69, N-[1-[3-(difluoromethanesulfonamido)phenyl]cyclopropyl]-5-(6-ethoxypyrazin-2-yl)-1,3-thiazole-2-carboxamide]"
9,≥ 1000,"O=C(NC1(c2csc(NS(=O)(=O)C3CC3)n2)CC1)c1cc2ccccc2cn1 [I-3, N-(1-(2-(cyclopropanesulfonamido)thiazol-4-yl)cyclopropyl)isoquinoline-3-carboxamide]"
10,< 100,O=C(NCc1cc(NS(=O)(=O)C2CC2)ccn1)c1ncc(-c2cnn3ccc(C(F)(F)F)cc23)s1 [I-177]
11,< 100,"CCOc1cncc(-n2cnc(C(=O)N3CCC[C@H]3c3ccnc(NS(=O)(=O)C4CC4)n3)c2)n1 [I-276, N-[4-[(2S)-1-[1-(6-ethoxypyrazin-2-yl)imidazole-4-carbonyl]pyrrolidin-2-yl]pyrimidin-2-yl]cyclopropanesulfonamide]"
12,< 100,"CCOc1cncc(-c2cnc(C(=O)N[C@H](C[C@@H]3CCCCN3)c3cc(NS(=O)(=O)C4CC4)ccn3)s2)n1 (single isomer, unassigned) [I-141]"
13,100 to 1000,Cc1cc2c(-c3cnc(C(=O)NCc4cc(NS(=O)(=O)C5CC5)ccn4)s3)cncn2n1 [I-185]
14,< 100,"CCOc1cncc(-c2ncc(C(=O)NCc3cccc(NS(=O)(=O)C(F)F)c3)s2)n1 [I-62, N-[[3-(difluoromethanesulfonamido)phenyl]methyl]-2-(6-ethoxypyrazin-2-yl)-1,3-thiazole-5-carboxamide]"
15,100 to 1000,"CCOc1cncc(-c2ncc(C(=O)N3CCC[C@@H]3c3cc(NS(=O)(=O)C4CC4)ccn3)s2)n1 [I-76, N-[2-[(2R)-1-[2-(6-ethoxypyrazin-2-yl)-1,3-thiazole-5-carbonyl]pyrrolidin-2-yl]pyridin-4-yl]cyclopropanesulfonamide]"
16,≥ 1000,"CCOc1cncc(-c2cnc(C(=O)NCc3cc(F)c(F)c(NS(=O)(=O)C4CC4)c3)s2)n1 [I-255, N-[(3-cyclopropanesulfonamido-4,5-difluorophenyl)methyl]-5-(6-ethoxypyrazin-2-yl)-1,3-thiazole-2-carboxamide]"
17,100 to 1000,"O=C(NC1(c2csc(NS(=O)(=O)C3CC3)n2)CC1)c1ccc2ccccc2c1 [I-1, N-(1-(2-(cyclopropanesulfonamido)thiazol-4-yl)cyclopropyl)-2-naphthamide]"
18,< 100,"CCOc1cncc(-c2cnc(C(=O)NC(CCN(C)C)c3cc(NS(=O)(=O)C4CC4)ccn3)s2)n1 (centres unmarked) [I-201, N-(1-(4-(cyclopropanesulfonamido)pyridin-2-yl)-3-(dimethylamino)propyl)-5-(6-ethoxypyrazin-2-yl)thiazole-2-carboxamide]"
19,< 100,"CCOc1cncc(-c2cnc(C(=O)N[C@@H](c3cc(NS(=O)(=O)C4CC4)ccn3)[C@@H]3CCOC3)s2)n1 (single isomer, unassigned) [I-93]"
20,≥ 1000,"CCc1nc2ccc(C(=O)NCc3cc(NS(=O)(=O)C4CC4)ccn3)cc2[nH]c1=O [I-180, N-((4-(cyclopropanesulfonamido)pyridin-2-yl)methyl)-2-ethyl-3-oxo-3,4-dihydroquinoxaline-6-carboxamide]"

# Reference: patent US12331046B2, “CTPS1 inhibitors and uses thereof” (Nimbus Clotho, Inc., priority 2020, dated 2025)
